Marks after values point to notes of the source that are not given here.
Columns and labels:
Type in all cases: in vivo, rat
male Wistar rats [1] = test: Metabolic syndrome model in rats (cafeteria diet)
Description: Metabolic syndrome was simulated in male Wistar rats (260-280 g) by keeping animals on a high-fat diet (“cafeteria diet”) for 12 weeks. The “cafeteria diet” was balanced according to Current Protocols in Pharmacology [Current Protocols in Pharmacology (2005) Animal Models of Disease//Contributed by Petter Hedlund, Kenshi Matsumoto, and Karl-Erik Andersson]. The diet contained 25-35% of fats and 25-30% of digestible carbohydrates in addition to the standard diet of rodents. Treamid was administered at a dose of 0.5 mg/kg intragastrically once daily, every day from Week 7 to Week 11 of the diet. Reference drug Metformin was administered at a dose of 200 mg/kg intragastrically according to the same regimen.
The development of pathology and a therapeutic effect of Treamid were estimated by the following parameters: blood biochemical parameters (glucose, cholesterol, triglycerides (TG), HDL, LDL, atherogenicity index), glucose tolerance test, visceral fat weight, total number and percentage of motile sperm forms.
Glucose was determined with an OneNouch Select glucometer (Switzerland).
The levels of triglycerides, TCh and HDL were determined by using a diagnostic kit (Olvex Diagnosticum, Russia).
The level of LDL was determined by the formula 2. LDL=TCh−(HDL+TG/2.2) (1),
The atherogenicity index (AI) was calculated by the formula 3. AI=(TCh−HDL)/HDL (2),
The atherogenicity index was calculated for each animal individually, and then the arithmetic mean value of the group was calculated.
For the analysis of sperm, the animals were anesthetized with intraperitoneal injection of a mixture of Zolletil and Xyla (0.2 ml of Zoletil+0.8 ml Xyla) in a volume of 70 μl/100 g of weight. Epididymis was isolated. The epididymis head was cut off from the tail, weighed, 5 incisions were made (to improve the sperm yield), and placed in a tube containing 10 ml of phosphate buffered saline heated to 37° C. The tube was held at 37° C. for 10 minutes. Then, the tube was shaken on a shaker, 20 μl of the liquid was taken, applied to a glass slide heated to 37° C., and the number of motile sperm cells was assessed under a microscope. The calculation was performed up to 100 sperm cells.
The total number of sperm cells in a test tube with epididymis was calculated as follows: 20 μl of the liquid was taken after shaking and added to a tube containing 400 μl of physiological saline. After shaking the tubes, their contents (20 μl) were taken out and introduced into Goryaev chamber. The number of sperm cells was counted in 100 large squares. The number of sperm cells in the head of epididymis was calculated by the formula: Number of sperm cells=number of sperm cells in 100 large squares of Goryaev chamber*0.525(factor from the calculation of the dilution and the volume of Goryaev chamber)/weight of the epididymis head.

male rats = settings: rat, in vivo
Procedure: The latter was simulated by a single injection of cytostatic drug Paclitaxel (Mitotax, Dr. Reddy's, India) to male rats (3 months of age). The choice of the drug was due to the fact that it is one of the medications that damage the precursors of spermatogenesis—stem cells.
Paclitaxel was administered to the animals of the control and test groups once intravenously at the maximum tolerated dose of 7.6 mg/kg. Treamid was administered to the animals of the experimental groups intragastrically at a dose of 5 mg/kg in the form of a suspension in 2% starch mucus for 15 days a month after the administration of Paclitaxel. The control animals received an equivalent volume of the solvent (2% starch mucus), instead of the test compound.
The colony-stimulating activity of the cells of the microenvironment of spermatogenic tissue (production of humoral regulators of spermatogenesis by Sertoli cells) was determined as follows. The above-described procedure was used to prepare a testis homogenate from which an adherent fraction of cells was isolated. The adherent cells were cultured for 24 hours in complete culture medium at 37° C., 5% CO2 and 100% air humidity. A day later, the supernatant was collected, which was stored at a temperature of […]. The level of humoral factors of spermatogenesis in the supernatant was tested by the test system of CFU-Sp of the testes of intact rats. […]

male Wistar rats [2] = test: Sexual incentive motivation test, rats of late reproductive age; settings: 14-month rats
Procedure: (§1) Erectile dysfunction was simulated by using animals of late and senile reproductive age (14-19 months). Suppression of sexual motivation was simulated by using animals of late reproductive age (14 months).
Experiments on studying the effect of Treamid on sexual motivation were carried out on 40 male Wistar rats (14 months of age). A model for a targeted search for novel agents for the therapy of this pathology was used as an experimental model of sexual incentive motivation in rats [Xi Chu, Ekaterina S. Zhavbert, Julia L. Dugina, Irina A. Kheyfets, Svetlana A. Sergeeva, Oleg I. Epstein, Anders Agmo Sindenafil and a compound stimulating endothelial NO synthase modity sexual incentive motivation and copulatory behavior in male wistar and fisher 344//J Sex Med.—2008.—5.—P. 2085-2009]. This model is based on the fact that rats are social animals and seek not only sexual, but also social contacts. The assessment of sexual motivation involves determining the time spent near a sexual stimulus and the score of preference in animals without direct contact with “social” and “sexual” stimuli. The sexual stimulus was a female rat in estrus stage, and the social stimulus was a male rat.

male Wistar rats [3] = test: Pair-test of sexual behavior, seasonal suppression of copulatory activity
Procedure: Seasonal suppression of reproductive activity was simulated by carrying out the experiment in the winter period (end of December). As a background group, intact animals (3 months of age) were tested in June.
The experiments were carried out on 27 male Wistar rats of reproductive age (3 months). Treamid at a dose of 5 mg/kg and reference drug Sildenafil (at a dose of 3 mg/kg) were administered intragastrically […], once daily for 15 days. The sexual activity was estimated by the pair-test of sexual behavior. The test was carried out twice: before administration and one hour after the last administration of Treamid. The rats of the control groups receiving the solvent were tested at the same time as the animals of the experimental groups.
The experiment also comprised the use of female rats in the estrus stage caused by a preliminary 4-fold injection of the Synestrel. The effectiveness of Treamid was estimated by the following indices: latency until the first mating attempt (LFM), the number of mating attempts (MN), and the number of ejaculations (EN). The obtained data were compared with those of the same animals before the administration of the tested compound and with the data of the control group (the second test).

Wistar rats = test: Pair-test of sexual behavior, rats of late reproductive (14 months) and presenile (19 months) age; settings: 14-month rats
Procedure: as §1
Experiments on studying the effect of Treamid on copulatory activity were carried out on 76 Wistar rats (14 months and 19 months of age). Treamid was administered intragastrically for 14 days at a dose of 5 mg/kg. Reference drug Sildenafil (100 mg, PFIZER PGM, France) was also administered intragastrically, which corresponded to clinical use, at a dose of 3 mg/kg twice a week. The sexual activity was estimated by the pair-test of sexual behavior. For this purpose female rats in the estrus stage caused by a preliminary 4-fold injection of the Synestrel were involved in the experiment. The effectiveness of Treamid was estimated by the following indices: latency until the first mating attempt (LFM), the number of mating attempts (MN), and the number of ejaculations (EN). The obtained data were compared with those of the same animals before the administration of Treamid (the first test) and with the data in the control group (the second test).

[4] = Treamid 0.5 mg/kg, Metformin 200 mg/kg intragastrically Week 7-11 of high-fat diet
[5] = high-fat diet for 12 weeks, Treamid 0.5 mg/kg, Metformin 200 mg/kg
[6] = high-fat diet, Treamid 0.5 mg/kg, Metformin 200 mg/kg
[7] = Second test, after administration of the test compound, Treamid 5 mg/kg, Sildenafil 3 mg/kg, 14 days
[8] = first test, before administration
[9] = first test, before administration, winter period
[10] = second test, one hour after last administration, Treamid 5.0 mg/kg, Sildenafil 3 mg/kg intragastrically, 15 days
[11] = First test, before administration of drugs
[12] = Second test, after 14-day administration course, Treamid 5 mg/kg, Sildenafil 3 mg/kg

## CN(C)C(=N)N=C(N)N [Metformin, reference compound]
Male Wistar rats [1]; 3 weeks after the drug administration, Treamid 0.5 mg/kg, Metformin 200 mg/kg
  Glucose level in the blood of male rats, mmol/L: 6.9 ± 0.3*& mmol/L
Male Wistar rats [1]; 5 weeks after the drug administration, Treamid 0.5 mg/kg, Metformin 200 mg/kg
  Glucose level in the blood of male rats, mmol/L: 8.0 ± 0.2*& mmol/L
Male Wistar rats [1]; [4]
  Relative weight of visceral fat, Fat near the intestine: 1.07 ± 0.08 % based on body weight
  Relative weight of visceral fat, Fat near the kidneys: 0.52 ± 0.05& % based on body weight
  Relative weight of visceral fat, Fat near the testes: 0.98 ± 0.12 % based on body weight
  Relative weight of visceral fat, Total fat: 2.57 % based on body weight
Male Wistar rats [1]; before administration of drugs (Week 6 of diet)
  Glucose level in the blood of male rats: 6.2 ± 0.1 mmol/L
Male Wistar rats [1]; [5]
  Atherogenicity index: 0.6 ± 0.1&
  HDL, mM/l: 1.8 ± 0& mM/l
  LDL, mM/l: 0.7 ± 0.3& mM/l
  Total cholesterol, mM/l: 2.8 ± 0.3 mM/l
  Triglycerides, mM/l: 0.7 ± 0.1& mM/l
Male Wistar rats [1]; [6]
  Percentage of motile sperm forms: 24.43 ± 3.99 %
  Total number of sperm cells: 276.6 ± 44.6&
Male Wistar rats [1]; one week after the drug withdrawal, Treamid 0.5 mg/kg, Metformin 200 mg/kg
  Glucose level in the blood of male rats, mmol/L: 7.8 ± 0.6& mmol/L
Male Wistar rats [1]; vs. high-fat diet control
  increase of the percentage of motile sperm forms: did not affect
  increase of the total number of sperm cells: 1.8 times

## CC(=O)O[C@H]1C(=O)[C@@]2(C)[C@H]([C@H](OC(=O)c3ccccc3)[C@]3(O)C[C@H](OC(=O)[C@H](O)[C@@H](NC(=O)c4ccccc4)c4ccccc4)C(C)=C1C3(C)C)[C@]1(OC(C)=O)CO[C@@H]1C[C@@H]2O [Paclitaxel, reference compound]
Male rats
  colony stimulating activity of conditioned media of testis cells, CFU-Sp, per 2 × 10^5 (M; SD, n = 10): 3.0; 0.53* per 2 × 10^5

## CCCc1nn(C)c2c(=O)[nH]c(-c3cc(S(=O)(=O)N4CCN(C)CC4)ccc3OCC)nc12 [Sildenafil, reference compound]
Male Wistar rats [2]; [7]
  A, sec (time spent in the sexual stimulus zone): 143.18 ± 48.64 s
  PS, s. u. (preference score): 0.41 ± 0.12 s. u.
Male Wistar rats [2]; Treamid 5 mg/kg, Sildenafil 3 mg/kg
  effect on sexual motivation: had no effect
Male Wistar rats [2]; [8]
  A, sec (time spent in the sexual stimulus zone): 166.83 ± 26.27 s
  B, sec (time spent in the social stimulus zone): 113.58 ± 22.60 s
  PS, s. u. (preference score): 0.59 ± 0.06 s. u.
Male Wistar rats [3]; Sildenafil 3 mg/kg
  effect on sexual behavior under seasonal suppression: did not have a significant effect
Male Wistar rats [3]; [9]
  LFM: 473.00 ± 137.58 s
  the number of ejaculations, %: 0%
  the number of mounts, abs.: 3.33 ± 1.27 abs.
Male Wistar rats [3]; [10]
  LFM: 308.22 ± 117.73 s
  the number of ejaculations, %: 0%
  the number of mounts, abs.: 5.67 ± 1.76 abs.
Wistar rats; [11]
  EN (the number of ejaculations): 0.00 ± 0.00
  LFM (latency until the first mount): 610.08 ± 88.34
  MN (the number of mounts): 1.58 ± 0.56
Wistar rats; [12]
  EN (the number of ejaculations): 0.00 ± 0.00
  MN (the number of mounts): 6.27 ± 1.27⋄#
Wistar rats; Second test, after 14-day administration course, Treamid 5 mg/kg, Sildenafil 3 mg/kg intragastrically
  LFM (latency until the first mount): 171.09 ± 78.08⋄*

Reference: patent US10076511B2, “Bisamide derivative of dicarboxylic acid as an agent for stimulating tissue regeneration and recovery of diminished tissue function” (TREAMID GmbH, priority 2015, dated 2018)
